Literature values as cited in patent US20160067252A1, “TRANSDERMAL DELIVERY OF SILDENAFIL AND OTHER PHOSPHODIESTERASE TYPE 5 INHIBITORS” (STRATEGIC SCIENCE & TECHNOLOGIES, LLC, priority 2013, published 2016).

Row | pKa | Compound
1 | 6.0 | CCCOc1ccc(S(=O)(=O)N2CCN(CCO)CC2)cc1-c1nc2c(CCC)cn(CC)c2c(=O)[nH]1 [mirodenafil]
2 | 10.53 | CCCOc1ccc(S(=O)(=O)NCCC2CCCN2C)cc1-c1nc2c(CCC)nn(C)c2c(=O)[nH]1 (stereo not drawn) [udenafil]

Row | Compound | pKa
3 | CN1CC(=O)N2[C@H](c3ccc4c(c3)OCO4)c3[nH]c4ccccc4c3C[C@@H]2C1=O [tadalafil] | 18
